Where two headings read alike, the source gives them in different places.
Legend:
[1] = cited from earlier work
[2] = cited from earlier work; remark: listed apart in the source
[3] = cited from earlier work; remark: listed apart in the source
[4] = tested on: HT29 colon cancer cells; test: Viability of HT29 tumor cells (PI staining); format: cell-based; conditions: 24-hour exposure
Protocol: (§1) In another example, the effect of CXCR4 antagonists on the survival of NB4, HL60, Jurkat leukemic cells and HT29 colon cancer and prostate tumor cells was examined.
(§2) Following the incubation, the cells were stained with propidium iodide (PI) (Sigma, St. Louis, Mo.) and percent of viable PI-negative cells in culture was determined by FACScalibur analysis (Becton Dickinson Immunocytometry Systems), using CellQuest software.
as §2

[5] = tested on: mammary carcinoma of mice; conditions: intraperitoneal, 75 mg/kg; cited from earlier work
[6] = tested on: NB4, HL60, Jurkat leukemic cells; test: Viability of leukemic cells (PI staining, FACS); format: cell-based, human; conditions: 24 hours
Protocol: as §1, §2, §2

[7] = tested on: mice; conditions: cited from earlier work
[8] = tested on: murine melanoma; conditions: 5 mg/kg; cited from earlier work
[9] = tested on: thymidine kinase; conditions: colon cancer cells; cited from earlier work
[10] = tested on: thymidylate synthase; conditions: colon cancer cells; cited from earlier work
[11] = tested on: hemolytic plaque forming cells in the spleens of mice; conditions: cited from earlier work
[12] = tested on: central stimulation in mice and rats; conditions: oral administration; cited from earlier work

## O=C1c2cc(CO)cc(O)c2C(=O)c2c(OC3OC(CO)C(O)C(O)C3O)cccc21 (centres unmarked) [Aloe-emodin-8-glycoside]
[1]
  ED50 (oral purgative): 71.6 mg/kg

## O=C1c2cccc(O)c2C(=O)c2c(O)cc(CO)cc21 [Aloe-emodin]
[2]
  half-life: about 78 min

## CC1=CCC(C(C)(C)O)CC1 (stereo not drawn) [Alpha-terpineol]
[2]
  half life: about 1.245 hours

## OCC1=C[C@@H](O)[C@@H]2C=CO[C@@H](O[C@@H]3O[C@H](CO)[C@@H](O)[C@H](O)[C@H]3O)[C@H]12 [Aucubin]
[2]
  half life: about 42.5 minutes

## Cc1ccc(C(C)C)cc1O [Carvacrol]
[2]
  half life: about 1.29 hours

## CCC(=O)O[C@]1(C(=O)CCl)[C@@H](C)C[C@H]2[C@@H]3CCC4=CC(=O)C=C[C@]4(C)[C@@]3(F)[C@@H](O)C[C@@]21C [Clobetasol propionate]
[3]
  solubility in water: insoluble in water

## C[C@H]1O[C@@H](O[C@H]2[C@@H](O)C[C@H](O[C@H]3[C@@H](O)C[C@H](O[C@H]4CC[C@@]5(C)[C@H](CC[C@@H]6[C@@H]5C[C@@H](O)[C@]5(C)[C@@H](C7=CC(=O)OC7)CC[C@]65O)C4)O[C@@H]3C)O[C@@H]2C)C[C@H](O)[C@@H]1O [Digoxin, reference compound]
[4]
  effect on HT29 tumor cells: partial however significant effect
[2]
  half life: around 36 hours

## Cc1cc(O)c2c(c1)C(=O)c1cc(O)cc(O)c1C2=O [Emodin]
[4]
  effect on HT29 tumor cells: partial however significant effect
[5]
  inhibition against mammary carcinoma: 45%
[6]
  concentrations inhibiting the growth of leukemic cells: more than 5 microgram/ml
[7]
  LD50: 0.56 g/k″g
[1]
  ED50 (oral purgative): >500 mg/kg
[8]
  inhibition rate against murine melanoma: 73%
[2]
  half-life: approximately 227 min

## CC(C)=CCC/C(C)=C/CO [Geraniol]
[9]
  reduction of thymidine kinase expression: 2 fold
[10]
  reduction of thymidylate synthase expression: 2 fold

## O=c1cc(-c2ccc(O)c(O)c2)oc2cc(O)cc(O)c12 [Luteolin]
[2]
  half life: about 1.2 hours

## COc1cc(O)c2c(c1)C(=O)c1cc(C)cc(O)c1C2=O [Physcion]
[1]
  ED50 (oral purgative): >500 mg/kg

## COc1ccc(/C=C/c2cc(O)cc(O[C@@H]3O[C@H](CO)[C@@H](O)[C@H](O)[C@H]3O)c2)cc1O [Rhapontin]
[2]
  half life: about 23.5 minutes

## O=C(O)c1cc(O)c2c(c1)C(=O)c1cccc(O[C@@H]3O[C@H](CO)[C@@H](O)[C@H](O)[C@H]3O)c1C2=O [Rhein-8-glucoside]
[1]
  ED50 (oral purgative): 20.0 mg/kg

## O=C(O)c1cc(O)c2c(c1)C(=O)c1cccc(O)c1C2=O [Rhein]
[2]
  half-life: about 205 min

## O=C(O)c1cc(O)c2c(c1)[C@H]([C@H]1c3cc(C(=O)O)cc(O)c3C(=O)c3c(O[C@@H]4O[C@H](CO)[C@@H](O)[C@H](O)[C@H]4O)cccc31)c1cccc(O[C@@H]3O[C@H](CO)[C@@H](O)[C@H](O)[C@H]3O)c1C2=O [Sennoside A]
[1]
  ED50 (oral purgative): 13.5 mg/kg

## O=C(O)c1cc(O)c2c(c1)[C@@H]([C@H]1c3cc(C(=O)O)cc(O)c3C(=O)c3c(O[C@@H]4O[C@H](CO)[C@@H](O)[C@H](O)[C@H]4O)cccc31)c1cccc(O[C@@H]3O[C@H](CO)[C@@H](O)[C@H](O)[C@H]3O)c1C2=O [Sennoside B]
[1]
  ED50 (oral purgative): 13.9 mg/kg

## O=C(O)c1cc(O)c2c(c1)[C@H]([C@H]1c3cc(CO)cc(O)c3C(=O)c3c(O[C@@H]4O[C@H](CO)[C@@H](O)[C@H](O)[C@H]4O)cccc31)c1cccc(O[C@@H]3O[C@H](CO)[C@@H](O)[C@H](O)[C@H]3O)c1C2=O [Sennoside C]
[1]
  ED50 (oral purgative): 13.3 mg/kg

## O=C(O)c1cc(O)c2c(c1)[C@H]([C@@H]1c3cc(CO)cc(O)c3C(=O)c3c(O[C@@H]4O[C@H](CO)[C@@H](O)[C@H](O)[C@H]4O)cccc31)c1cccc(O[C@@H]3O[C@H](CO)[C@@H](O)[C@H](O)[C@H]3O)c1C2=O [Sennoside D]
[1]
  ED50 (oral purgative): 13.8 mg/kg

## O=C(O)C(=O)OC[C@H]1O[C@@H](Oc2cccc3c2C(=O)c2c(O)cc(C(=O)O)cc2[C@@H]3[C@H]2c3cc(C(=O)O)cc(O)c3C(=O)c3c(O[C@@H]4O[C@H](CO)[C@@H](O)[C@H](O)[C@H]4O)cccc32)[C@H](O)[C@@H](O)[C@@H]1O [Sennoside E]
[1]
  ED50 (oral purgative): 13.5 mg/kg

## O=C(O)C(=O)OC[C@H]1O[C@@H](Oc2cccc3c2C(=O)c2c(O)cc(C(=O)O)cc2[C@@H]3[C@@H]2c3cc(C(=O)O)cc(O)c3C(=O)c3c(O[C@@H]4O[C@H](CO)[C@@H](O)[C@H](O)[C@H]4O)cccc32)[C@H](O)[C@@H](O)[C@@H]1O [Sennoside F]
[1]
  ED50 (oral purgative): 16.1 mg/kg

## COc1cc(C(=O)O)ccc1O [Vanillic acid]
[2]
  half life: about 10.552 hours

## C[C@@H]1O[C@@H](O[C@@H]2[C@@H](O)[C@H](OCCc3ccc(O)c(O)c3)O[C@H](CO)[C@H]2OC(=O)/C=C/c2ccc(O)c(O)c2)[C@H](O)[C@H](O)[C@H]1O [acetoside]
[11]; oral dose of 100 mg/kg
  suppression of hemolytic plaque forming cells: 18%

## O=C(/C=C/c1ccc(O)c(O)c1)O[C@@H]1C[C@](O)(C(=O)O)C[C@@H](O)[C@H]1O [chlorogenic acid]
[12]
  potency of central stimulation relative to caffeine: 1/6

## O=P1(N(CCCl)CCCl)NCCCO1 (centres unmarked) [cyclophosphamide, reference compound]
[11]; intraperitoneal dose of 30 mg/kg
  suppression of hemolytic plaque forming cells: 52.5%

## CC[C@H](CC[C@@H](C)[C@H]1CC[C@H]2[C@@H]3CC=C4C[C@@H](O)CC[C@]4(C)[C@H]3CC[C@]12C)C(C)C [β-sitosterol]
[2]
  half life: about 0.966 hours

## Emodin monoglucoside
[1]
  ED50 (oral purgative): 103.6 mg/kg

## jionoside B
[11]; oral dose of 100 mg/kg
  suppression of hemolytic plaque forming cells: 36%
